Experimental data: PubChem BioAssay (NCI)
Several values for one entry are separate records, joined by “and”; a condition that tells them apart may be missing. Identical values can stand only once.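 Tested at 5 concentrations; 48 h exposure; 96-well plates; endpoints linearly interpolated, else capped at highest concentration. GI50 = concentration required for 50% inhibition of growth. TGI: total growth inhibition.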

Assays:
Experiment in all cases: DTP human tumour cell line panel, 48 h
M19-MEL melanoma = system: M19-MEL melanoma
DMS 114 small cell lung = system: DMS 114 small cell lung
MDA-MB-435 = system: MDA-MB-435
PC-3 prostate = system: PC-3 prostate
DMS 273 small cell lung = system: DMS 273 small cell lung
XF 498 CNS = system: XF 498 CNS
RXF-631 renal = system: RXF-631 renal
HOP-18 NSCLC = system: HOP-18 NSCLC
MDA-N = system: MDA-N

| SMILES | TGI (M19-MEL melanoma) | TGI (DMS 114 small cell lung) | GI50 (MDA-MB-435) | TGI (MDA-MB-435) | GI50 (PC-3 prostate) | TGI (PC-3 prostate) | TGI (HOP-18 NSCLC) | other results |
| --- | --- | --- | --- | --- | --- | --- | --- | --- |
| CCOC(=O)/C(=C/c1ccc(C(=O)OC)cc1)N(CC)CC | > 100 µM | > 100 µM |  |  |  |  |  |  |
| COC12C=C/C(=C(/C(=O)OCc3ccccn3)C(=O)CCCCCCCCC3(OC)C=C/C(=C(/C(=O)OCc4ccccn4)C(=O)CCCCCCCC1)O3)O2 |  |  | 0.209 µM | 0.48 µM | 0.719 µM | 3.98 µM |  |  |
| CCOP(=O)(OCC)C1CCCOC1=O (stereo not drawn) | > 100 µM | > 100 µM |  |  |  |  | > 100 µM | TGI (DMS 273 small cell lung): > 100 µM; TGI (XF 498 CNS): > 100 µM; TGI (RXF-631 renal): > 100 µM |
| Cc1cc2c(cc1Cl)S/C(=C/C(=O)O)C(Nc1ccc3ncsc3c1)=NS2(=O)=O |  |  | > 33.5 µM | > 53.4 µM | 14.2 µM | > 49.4 µM |  |  |
| Nc1ccc(C2=CC(c3ccc(Cl)cc3)N3C=CSC3=N2)cc1 (stereo not drawn) |  |  | 2.43 µM | 6.76 µM | 8.8 µM | > 100 µM |  |  |
| C[CH2][Ge]([CH2]C)([CH2]C)[O]C(=O)C(OC(C)=O)c1ccccc1 (stereo not drawn) | > 100 µM | > 100 µM |  |  |  |  | > 100 µM | TGI (XF 498 CNS): 31 µM; GI50 (RXF-631 renal): > 100 µM; TGI (RXF-631 renal): > 100 µM; GI50 (HOP-18 NSCLC): > 100 µM; GI50 (M19-MEL melanoma): > 100 µM; GI50 (DMS 114 small cell lung): 42.1 µM |
| CC(=O)c1c2c(cc3c1CC1(C3)Cc3cc4c(c(C(C)=O)c3C1)CCC4)CCC2 | > 100 µM | > 100 µM |  |  |  |  | > 100 µM | TGI (XF 498 CNS): > 100 µM; TGI (RXF-631 renal): > 100 µM |
| COC(=O)N/N=C(\C)c1c(O)cc(C)oc1=O |  |  |  |  |  |  |  | TGI (RXF-631 renal): > 100 µM |
| COc1ccc2c(c1)c(-c1nc(-c3c[nH]c4ccncc34)cs1)cn2C |  |  | 1.59 µM | 2.96 µM | 1.6 µM | 3.06 µM |  |  |
| COc1ccc(-c2nc(-c3ccc(C)cc3)cn3ccnc23)cc1 |  |  | 1.76 µM | > 50 µM | 4.44 µM | > 50 µM |  |  |
| Cc1cccc(C)c1NC(=O)C1=NC(=S)NC(c2ccccc2)C1c1nc2ccccc2s1 (stereo not drawn) | > 100 µM | > 100 µM |  |  |  |  | > 100 µM | TGI (DMS 273 small cell lung): > 100 µM; TGI (XF 498 CNS): > 100 µM |
| CNC(=O)c1c(NC(=O)c2ccc(C(C)(C)C)cc2)sc2c1CCC(=O)C2 |  |  | 0.335 µM | 1.42 µM | 0.0797 µM | 1.35 µM |  |  |
| COC(=O)C1Cc2c(n(C)c3ccccc23)C(CCC(=O)O)N1Cc1ccccc1 (stereo not drawn) | > 100 µM | 93.2 µM |  |  |  |  |  | TGI (DMS 273 small cell lung): > 100 µM; TGI (XF 498 CNS): 72.5 µM; TGI (RXF-631 renal): > 100 µM |
| COc1ncc(Nc2ncc([C@@H](C)N3CCN(S(C)(=O)=O)CC3)cc2-c2nc(C)nc(N)n2)cc1F |  |  | 1.15 µM | > 100 µM | < 0.0139 µM | > 100 µM |  |  |
| CN(c1ccc(C(=O)c2ccc(N(C)S(C)(=O)=O)cc2)cc1)S(C)(=O)=O | > 100 µM | 61.1 µM |  |  |  |  |  |  |
| C[N+](C)(C)CC(=O)N/N=C(/C(=O)Nc1ccc(Br)cc1)C1C(=O)NC(=O)NC1=O | > 100 µM | > 100 µM |  |  |  |  | > 100 µM | TGI (DMS 273 small cell lung): > 100 µM; TGI (RXF-631 renal): > 100 µM |

| SMILES | TGI (M19-MEL melanoma) | TGI (DMS 114 small cell lung) | GI50 (MDA-MB-435) | TGI (MDA-MB-435) | GI50 (PC-3 prostate) | TGI (PC-3 prostate) | TGI (HOP-18 NSCLC) | other results |
| --- | --- | --- | --- | --- | --- | --- | --- | --- |
| CN(C)C(=N/O)/C(=N\O)N(C)C | > 100 µM | > 100 µM |  |  |  |  | > 100 µM | TGI (DMS 273 small cell lung): > 100 µM; TGI (XF 498 CNS): > 100 µM; TGI (RXF-631 renal): > 100 µM |
| N#C/C(=C/c1ccc2c(c1)OCO2)C(=O)c1ccccc1 | > 100 µM |  |  |  |  |  | > 100 µM | TGI (XF 498 CNS): > 100 µM |
| COC(=O)C1=C(O)[C@H](C(=O)OC)C2(O)C(C(=O)OC)[C@H](c3ccc(OC(=O)C(C)c4ccc(CC(C)C)cc4)cc3)C[C@@H]1[C@@H]2C(=O)OC (stereo partly drawn) |  |  | 12.8 µM | 28.2 µM | 35 µM | > 50 µM |  |  |
| CC(=O)[O-].Cn1ccnc1CNCc1nccn1C.[Cu+2].[O-][Cl+3]([O-])([O-])[O-] |  | > 100 µM |  |  |  |  | > 100 µM | GI50 (DMS 273 small cell lung): > 100 µM; TGI (DMS 273 small cell lung): > 100 µM; GI50 (HOP-18 NSCLC): > 100 µM; GI50 (DMS 114 small cell lung): > 100 µM |
| COc1cc(Nc2ncc(-c3ccccc3)o2)cc(OC)c1 |  |  | > 25 µM | > 25 µM | > 25 µM | > 25 µM |  |  |
| COc1ccc(/C(COc2ccc3oc(-c4ccccc4)cc(=O)c3c2)=N\O)cc1 |  |  | < 0.005 µM | < 0.005 µM | 0.202 µM | > 19.2 µM |  |  |
| CC1C(C)N(C(=O)CCl)c2ccccc2N1C(=O)CCl (stereo not drawn) |  |  | 0.276 µM | 0.939 µM | 1.19 µM | 2.85 µM |  |  |
| CCN(Cc1ccccc1)C1CCN(Cc2cc(Br)ccc2O)CC1 |  |  | 30.2 µM | > 100 µM | 38.9 µM | > 100 µM |  |  |
| OC(COC(c1ccccc1)(c1ccccc1)c1ccccc1)C(O)CC1SCCS1 (stereo not drawn) |  |  |  | 91.9 µM |  | 31.8 µM |  | TGI (MDA-N): 60.1 µM |
| COc1ccc(Cc2coc3ccccc3c2=O)cc1OC |  |  |  | > 100 µM |  | > 100 µM |  |  |
| c1ccc2c3c([nH]c2c1)[C@H]1C2CCCCN2CN1CC3 (stereo partly drawn) | > 100 µM | > 100 µM |  |  |  |  | > 100 µM | TGI (DMS 273 small cell lung): > 100 µM; TGI (XF 498 CNS): > 100 µM; TGI (RXF-631 renal): > 100 µM |
| COCN1COCN=C1NC#N | > 100 µM | > 100 µM |  |  |  |  | > 100 µM | TGI (DMS 273 small cell lung): > 100 µM; TGI (XF 498 CNS): > 100 µM; TGI (RXF-631 renal): > 100 µM |
| CC(C)(C)C1CCC2c3c([nH]c4ccccc34)C3C(=O)N(c4ccc(Cl)cc4)C(=O)C3C2C1 (stereo not drawn) |  |  | > 100 µM | > 100 µM | 37.4 µM and > 10 µM | > 100 µM |  | GI50 (MDA-N): 94.9 µM and > 10 µM; TGI (MDA-N): > 100 µM |
| CC1=C(c2ccccc2)C(O)(c2ccccc2)C(C)C1=O (stereo not drawn) |  |  | 2.13 µM | 5.47 µM | 22.8 µM | > 100 µM |  |  |
| CC1=C(SCCC(=O)OC(C[Se]C2=C(C)C(=O)c3ccccc3C2=O)C(=O)NCCCCCC(=O)OCc2ccccc2)C(=O)c2ccccc2C1=O (stereo not drawn) |  |  | 2.13 µM | 13 µM | 2.55 µM | 9.13 µM |  |  |
| CCOC(=O)c1cc2c(cc1Cl)SC(=Nc1ccccc1)N(S(=O)(=O)c1ccc(Cl)cc1)S2(=O)=O |  |  | 12.9 µM | 28.4 µM | 12.2 µM | 28.6 µM |  |  |
